Patent US20190374566A1, “COMPOSITION FOR PREVENTING AND TREATING ARTHRITIS, INCLUDING DNA FRAGMENT MIXTURE AND MATRIX METALLOPROTEINASE PRODUCTION INHIBITOR” (BR PHARM CO., LTD., priority 2018, published 2019)

Columns and labels:
Format in all cases: cell-based, human
MMP-3 [1] = assay: MMP-3 expression (ELISA) in 3D cultured SW-1353 cells stimulated with IL-β; conditions: 3D SW-1353, 10 mM of inhibitor together with 0, 10, 100 and 1000 μg/ml DNA fragment mixture, IL-β 10 ng/ml
Description: (§1) SW-1353 cells were grown on a 3D collagen […] with or without a DNA fragment mixture (polydeoxyribonucleotides (PDRN), 450 kDa, sterilized, BR Pharm Co, Wonju, South Korea). SW-1353 cells were harvested from the 2D culture, and the cells in the medium were counted. Next, the cells were spun down and cooled. For use of the DNA fragment mixture as an extracellular matrix (ECM) additive to 3D chondrocytes, 10 mg/ml of the DNA fragment mixture was dissolved in 10× PBS and diluted with 10× PBS at concentrations of 0 μg/ml, 10 μg/ml, 100 μg/ml and 1000 μg/ml. 10× PBS, containing different concentrations of the DNA fragment mixture, and rat tail collagen I solution diluted with DMEM at a concentration of 4 mg/ml, were mixed at a ratio of 1:10, and the mixture was adjusted to a pH of 7.0-7.4 with NaOH. Thereafter, the cells were carefully shaken to avoid air bubbles from entering the collagen solution. 2 μl of the solution was added to each well to construct a 3D gel-cell. The gel was kept in an incubator (37° C. and 5% CO2) for 45 minutes, and the 3D gel-cell matrix was exposed to serum-free medium for 48 hours. For drug screening from the DNA fragment mixture, the DNA fragment mixture was treated with serum-free medium after the SW-1353 cells were sufficiently grown.
(§2) SW-1353 cells were treated with 10-1000 μg/ml of the DNA fragment mixture and 0.1-10 mM of each of glucosamine (GLN), N-acetyl-D-glucosamine (NAG), alliin, sodium butyrate (SB) and chondroitin sulfate (CS) for 24 hours, and stimulated with 10 ng/ml of IL-β for analysis of MMP expression therein.
(§3) To evaluate MMP expression, IL-β was dissolved in serum-free DMEM medium and used at a final concentration of 10 ng/ml. The cells were cultured at 37° C. under 5% CO2. The cell culture supernatant was collected, centrifuged, and then stored at −80° C. until use in the experiment. The amounts of MMP-3 and MMP-13 in the culture supernatant were measured using commercially available ELISA (enzyme-linked immunosorbent assays) according to the manufacturer's protocol.
(§4) During 3D cell culture, chondrocytes were cultured in 10% serum-containing medium or serum-free medium, and the cultured chondrocytes were stimulated with IL-β (10 ng/ml).
(§5) In addition, after 24 hours of treatment with the DNA fragment mixture and IL-β in serum-free medium, two markers (MMP-3 and MMP-13) which are frequently involved in degenerative arthritis disease were analyzed.

MMP-13 [2] = assay: MMP-13 expression (ELISA) in 3D cultured SW-1353 cells stimulated with IL-β; conditions: 3D SW-1353, 10 mM of inhibitor together with 0, 10, 100 and 1000 μl/ml DNA fragment mixture, IL-β 10 ng/ml
Description: as §1, §2, §3, §4, §5

MMP-13 [3] = assay: MMP-13 expression (ELISA of culture supernatant) in 2D cultured SW-1353 cells stimulated with IL-β; conditions: 2D SW-1353, 10 mM of inhibitor together with 0, 10, 100 and 1000 μl/ml DNA fragment mixture, IL-β 10 ng/ml
Description: (§6) The human chondrosarcoma cell line SW-1353 (HTB-94, ATCC, Mansassas, Va., USA) was cultured in DMEM (Dulbecco Modified Eagle's medium) supplemented with 10% FBS (fetal bovine serum) and 1% antibiotic-antifungal agent. An incubator for cell culture was kept at 37° C. under 5% CO2. For cell culture, cells were seeded into a culture flask at a density of 1.2×10^4 cells/cm^2. When a confluence of 80-90% was reached, the cells were trypsinized. The cells were subcultured 9 times before use in the experiment.
as §2, §3
(§7) Cells of test groups were cultured with 10 ng/ml of IL-β under the same conditions as those of the control group.

MMP-3 [4] = assay: MMP-3 expression (ELISA of culture supernatant) in 2D cultured SW-1353 cells stimulated with IL-β; conditions: 2D SW-1353, 10 mM of inhibitor together with 0, 10, 100 and 1000 μg/ml DNA fragment mixture, IL-β 10 ng/ml
Description: as §6, §2, §3, §7

CC(=O)N[C@H]1C(O)O[C@H](CO)[C@@H](O)[C@@H]1O (stereo partly drawn) [N-acetyl-D-glucosamine]
decreased: expression level of MMP-3 protein (MMP-3 [1]) | expression level of MMP-13 protein (MMP-13 [2]) | expression level of MMP-13 protein (MMP-13 [3]) | expression level of MMP-3 protein (MMP-3 [4])

alliin
decreased: expression level of MMP-3 protein (MMP-3 [1]) | expression level of MMP-13 protein (MMP-13 [2]) | expression level of MMP-13 protein (MMP-13 [3]) | expression level of MMP-3 protein (MMP-3 [4])

chondroitin sulfate
decreased: expression level of MMP-3 protein (MMP-3 [1]) | expression level of MMP-13 protein (MMP-13 [2]) | expression level of MMP-13 protein (MMP-13 [3]) | expression level of MMP-3 protein (MMP-3 [4])

N[C@H]1C(O)O[C@H](CO)[C@@H](O)[C@@H]1O (some centres unmarked) [glucosamine]
decreased: expression level of MMP-3 protein (MMP-3 [1]) | expression level of MMP-13 protein (MMP-13 [2]) | expression level of MMP-13 protein (MMP-13 [3]) | expression level of MMP-3 protein (MMP-3 [4])

CCCC(=O)[O-].[Na+] [sodium butyrate]
decreased: expression level of MMP-3 protein (MMP-3 [1]) | expression level of MMP-13 protein (MMP-13 [2]) | expression level of MMP-13 protein (MMP-13 [3]) | expression level of MMP-3 protein (MMP-3 [4])
